Data on 16 molecules can be found in US10058092B2, “Apparatus and method for controlled release of botanical fumigant pesticides” (priority 2012, dated 2018).

Series [1] can be described thus: Headspace volatilization of secondary metabolites by GCMS. The series is classed as physicochemical. Conditions: share of total peak area. How it is done: In this study, a liquid fumigant pesticide formulation was prepared as follows: • (1) Base formula: rosemary oil (5 ml) • (2) Enhancement formula: rosemary oil high quality (0.5 ml); clove oil (0.05 ml); peppermint oil (0.075 ml) • (3) Carrier solvent: isopropyl alcohol (6 ml); isopropyl myristate (0.06 ml). Blending: • 3. The required amounts of base formula ingredients were drawn from individual stocks of chemicals via a laboratory pipette and were transferred into a 40 ml GC glass vial (2.5 cm diameter by 10 cm length) with a silicon septa. The tall vial was used to minimize surface area of liquid that is exposed to the air during preparation. The chemicals were added quickly (less than 10 second to transfer each chemical) in order to minimize exposure to air. Following the same instruction, the enhancement formula was prepared and added to the same vial. • 4. The carrier solvent was then poured over the base formula and enhancement formula inside the vial. The vial was closed immediately after the solvent was added. The base formula, enhancement formula and carrier solvent were mixed using a lab shaker for 15 seconds.
A sub-sample of the fumigant pesticide composition (0.5 ml) was placed inside a 1 ml GC vial. Three commercial samples of rosemary oil was also placed inside three separate 1 mL GC vials. Headspace volatilization of secondary metabolites from these four samples were compared using a gas chromatograph mass spectrometer (GCMS). The GCMS was programmed to only collect samples from the headspace above the liquid mixture of the chemicals in the vials. […] The GCMS was a Varian 3900 system with a Saturn 2100T ion trap mass-selective detector (Varian Inc., Walnut Creek, Calif.). The inventors used a WCOT fused silica 30 m Å˜0.25 mm i.d. column with a CP-Sil 8 CB low bleed MS coating (Varian Inc.), a 1 μL injection volume and pure helium as the carrier at 1.0 ml min-1. The temperature program used was 80° C. for 0.5 min, an increase of 8.0 $ Cmin-1 for 8.0 min, followed by an increase of 50° C. min-1 for 3.2 min. Cinnamic alcohol (Sigma, St Louis, Mo., USA) was used as an internal standard.

Series [2] is described as follows: Volatilization monitoring by ultra-fast gas chromatograph inside empty moving box. Format: physicochemical. The note with it: from fumigant pesticide composition prototype, empty medium size box, 60-150 min and 23 h after closing. How it is done: The volatilization of the prototype of the fumigant pesticide composition was monitored inside empty moving boxes. […] Ten mL of the fumigant pesticide composition prototype was placed inside a 40 mL GC vial.
Volatile monitoring was performed at two steps. Step one started 60 minutes after the box was closed and volatile samples were collected every 5-minutes for 90 minutes. The second step started 23 hours after the box was closed and samples were collected every 5-minutes for 50 minutes.

Setting [3] is: Commercial rosemary oil sample one.
The mark [4] stands for this setting: Commercial rosemary oil sample three.
The mark [5] stands for this setting: Commercial rosemary oil sample two.
[6] abbreviates: Pesticide fumigant formula of the present invention (0.5 ml in 1 ml GC vial).

Several values for one entry are separate records, joined by “and”; a condition that tells them apart may be missing. Equal values may be shown once.

For the molecule `CC12CCC(CC1)C(C)(C)O2` [1,8-Cineole], the “% of secondary metabolite in headspace” value in series [1] (setting [3]) worked out at 57.05%; in series [1] (setting [4]), 36.95%; in series [1] (setting [5]), 21.53%; in series [1] (setting [6]) it was 46.78%. The pattern of volatilization result in series [2] was “Unstable pattern with greater fluctuation at the end of trial”.
As for `CC1=CCC2C(C1)C2(C)C` (centres unmarked) [3-Carene], the “% of secondary metabolite in headspace” value in series [1] (setting [3]) is 1.88%.
Take `CC1(C)C2CCC1(C)C(O)C2` (centres unmarked) [Borneol]: the results for the “% of secondary metabolite in headspace” value in series [1] (setting [3]), in series [1] (setting [4]) and in series [1] (setting [5]) were 4.06%, 1.68% and 3.60%, respectively.
In the case of `CC(=O)OC1CC2CCC1(C)C2(C)C` (centres unmarked) [Bornyl Acetate], the “% of secondary metabolite in headspace” value in series [1] (setting [3]) is recorded as 2.70%; in series [1] (setting [4]) it was 2.54%.
Regarding `C=C1C2CCC(C2)C1(C)C` (centres unmarked) [Camphene], the “% of secondary metabolite in headspace” value in series [1] (setting [3]) was 4.26%; in series [1] (setting [4]), 10.06% and 4.72%; in series [1] (setting [5]), 13.04%; in series [1] (setting [6]), 9.98%. Further, in series [2], the pattern of volatilization result is “Fluctuation pattern with increasing levels at the tail end”.
For `CC12CCC(CC1=O)C2(C)C` (centres unmarked) [Camphor], the “% of secondary metabolite in headspace” value in series [1] (setting [3]) worked out at 11.89%; in series [1] (setting [4]), 18.60%; in series [1] (setting [5]) it was 25.50%; in series [1] (setting [6]) it was 23.30%. Also, the pattern of volatilization entry in series [2] is on record as “Fluctuation pattern with increasing levels at the tail end”.
Consider `C=C(C)[C@H]1CC=C(C)CC1` [D-Limonene], for which the “% of secondary metabolite in headspace” value in series [1] (setting [5]) is given as 4.67%. In series [2], the pattern of volatilization result was “Fluctuation pattern with increasing levels at the tail end”.
`C=CCc1ccc(O)c(OC)c1` [Eugenol]: in series [2], the pattern of volatilization result is reported as “Unstable pattern with greater fluctuation at the end of trial”.
Turning to `CC1(C)[C@@H]2CC[C@@]1(C)[C@H](O)C2` [Isoborneol], the “% of secondary metabolite in headspace” value in series [1] (setting [3]) is 1.74%; in series [1] (setting [5]), 2.28%.
Turning to `CC(=O)OC(C)C` [Isopropyl acetate], the “% of secondary metabolite in headspace” value in series [1] (setting [5]) is given as 3.25%.
Turning to `CC1=CC[C@@H](C(C)(C)O)CC1` [a-Terpineol], the “% of secondary metabolite in headspace” value in series [1] (setting [4]) was determined as 2.48%.
In the case of `CC1=CCC2CC1C2(C)C` (centres unmarked) [a-pinene], the “% of secondary metabolite in headspace” value in series [1] (setting [3]) was 6.53%; in series [1] (setting [4]), 14.73%; in series [1] (setting [5]), 18.15%; in series [1] (setting [6]), 14.58%. The pattern of volatilization entry in series [2] was “Complete inhibition pattern”.
Taken in the same sequence, the figures for `C=C1CCC2CC1C2(C)C` (centres unmarked) [b-pinene] were 8.00%, 6.22%, 5.43%, 5.35% and “Complete inhibition pattern”.
With `CC(C)=CCC/C(C)=C/CO` [geraniol], the pattern of volatilization entry in series [2] was “Steady compounds”.
The same measure, in the same setting: in the case of `C=CC(C)(O)CCC=C(C)C` (centres unmarked) [linalool] it was “Steady compounds”.
For `Cc1ccc(C(C)C)cc1` [p-Cymene], the “% of secondary metabolite in headspace” value in series [1] (setting [3]) turned out to be 1.89%; in series [1] (setting [4]), 2.01%; in series [1] (setting [5]), 2.56%. Also, in series [2], the pattern of volatilization result is on record as “Fluctuation pattern with increasing levels at the tail end”.
